Here are results for 3 compounds from publication PMC3058826 (Nature, 2010).

Test [1] has as its system ERα, GREB1 distal ERE, MCF7 cells. Description: ChIP of ERα at GREB1 ERE's. The settings on record: 10 nM estradiol, six hours. It counts as cell-based.
In test [2] the test system is TRIM24, GREB1 distal ERE, MCF7 cells. Description: ChIP of TRIM24 at GREB1 ERE's. It counts as cell-based. The note with it: 10 nM estradiol, six hours.
Test [3] deals with T1, TRIM24 PHD-Bromo (F979A/N980A) (Homo sapiens, UniProt O15164, F979A/N980A).
T1 sequence (O15164 824-1006 F979A/N980A): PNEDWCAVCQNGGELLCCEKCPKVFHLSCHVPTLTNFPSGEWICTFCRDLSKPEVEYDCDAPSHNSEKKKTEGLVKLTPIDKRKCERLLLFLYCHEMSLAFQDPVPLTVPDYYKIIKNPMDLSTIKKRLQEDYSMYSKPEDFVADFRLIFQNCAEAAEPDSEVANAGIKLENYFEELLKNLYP
The test can be described thus: ITC binding of histone peptides.

The target of test [4] is T2, TRIM24 PHD-Bromo (WT) (Homo sapiens, UniProt O15164).
T2 sequence (O15164 824-1006): T1 sequence (O15164 824-1006 F979A/N980A) with A156F, A157N
The test can be described thus: ITC binding of histone peptides. The settings on record: PHD-Bromo (bromodomain binding).

Residue numbers refer to the chain shown, from its start.

Consider `C[C@]12CC[C@@H]3c4ccc(O)cc4CC[C@H]3[C@@H]1CC[C@@H]2O` [estradiol], for which, in test [1], the “increase of ERα binding” value is listed as 7 fold. The “increase of TRIM24 binding” value in test [2] was 6 fold.

For “H3(13-32)K23ac: H3(13–32) peptide bearing acetylated K23; ITC values are those of the -Bio form”, in test [3], the “binding affinity in words” value is reported as “loses most of the binding affinity”.

For the compound “H3(13-32)K27ac: H3(13–32) peptide, K27ac; ITC values are those of the -Bio form”, in test [4], the “binding affinity in words” value is “weak binding affinity”.
